From ChEMBL document CHEMBL4145517, “Advances on photodynamic therapy of melanoma through novel ring-fused 5,15-diphenylchlorins” (Eur J Med Chem, 2018)
pIC50: −log10 of the molar value. The source made the active and inactive calls. The rule behind the calls is not given here.

tested on: A-375; assay: Increase in expression of reduced glutathione in human A375 cells up to 500 nM preincubated for 24 hrs followed by exposure to light with fluence rate of 7.5 mW/cm2 at 10 J and measured after 24 hrs by mercury orange staining-based fluorescence analysis; type: functional, cell-based; conditions: not given

Structure (SMILES)	Activity
COC(=O)c1nn2c(c1C(=O)OC)CC1c3cc4ccc([nH]4)c(-c4ccccc4)c4nc(cc5ccc([nH]5)c(-c5ccccc5)c(n3)C1C2)C=C4 (stereo not drawn)	inactive
OCc1nn2c(c1CO)CC1c3cc4ccc([nH]4)c(-c4ccccc4)c4nc(cc5ccc([nH]5)c(-c5ccccc5)c(n3)C1C2)C=C4 (stereo not drawn)	inactive

tested on: A-375; assay: Disruption of mitochondrial membrane potential in human A375 cells at 50 nM preincubated for 24 hrs followed by exposure to light with fluence rate of 7.5 mW/cm2 at 10 J and measured after 24 hrs by JC-1 staining-based assay; type: functional, cell-based; conditions: not given

Structure (SMILES)	Activity
COC(=O)c1nn2c(c1C(=O)OC)CC1c3cc4ccc([nH]4)c(-c4ccccc4)c4nc(cc5ccc([nH]5)c(-c5ccccc5)c(n3)C1C2)C=C4 (stereo not drawn)	Active
OCc1nn2c(c1CO)CC1c3cc4ccc([nH]4)c(-c4ccccc4)c4nc(cc5ccc([nH]5)c(-c5ccccc5)c(n3)C1C2)C=C4 (stereo not drawn)	Active

tested on: A-375; assay: Cell cycle arrest in human A375 cells assessed as accumulation at G2/M phase up to 500 nM preincubated for 24 hrs followed by exposure to light with fluence rate of 7.5 mW/cm2 at 10 J and measured after 24 hrs by propidium iodide/RNase-staining based flow cytometric analysis; type: functional; conditions: not given

Structure (SMILES)	Activity
OCc1nn2c(c1CO)CC1c3cc4ccc([nH]4)c(-c4ccccc4)c4nc(cc5ccc([nH]5)c(-c5ccccc5)c(n3)C1C2)C=C4 (stereo not drawn)	Active

tested on: A-375; assay: Disruption of mitochondrial membrane potential in human A375 cells at 500 nM preincubated for 24 hrs followed by exposure to light with fluence rate of 7.5 mW/cm2 at 10 J and measured after 24 hrs by JC-1 staining-based assay; type: functional, cell-based; conditions: not given

Structure (SMILES)	Activity
OCc1nn2c(c1CO)CC1c3cc4ccc([nH]4)c(-c4ccccc4)c4nc(cc5ccc([nH]5)c(-c5ccccc5)c(n3)C1C2)C=C4 (stereo not drawn)	Active

tested on: A-375; assay: Phototoxicity against human A375 cells assessed as reduction in cell viability up to 500 nM preincubated for 24 hrs followed by exposure to light with fluence rate of 7.5 mW/cm2 at 10 J and measured after 24 hrs in presence of hydroxyl radical scavenger D-mannitol by MTT assay; type: functional, cell-based; conditions: not given

Structure (SMILES)	Activity
COC(=O)c1nn2c(c1C(=O)OC)CC1c3cc4ccc([nH]4)c(-c4ccccc4)c4nc(cc5ccc([nH]5)c(-c5ccccc5)c(n3)C1C2)C=C4 (stereo not drawn)	Active
OCc1nn2c(c1CO)CC1c3cc4ccc([nH]4)c(-c4ccccc4)c4nc(cc5ccc([nH]5)c(-c5ccccc5)c(n3)C1C2)C=C4 (stereo not drawn)	Active

tested on: A-375; assay: Cell cycle arrest in human A375 cells assessed as accumulation at pre-G0 phase up to 500 nM preincubated for 24 hrs followed by exposure to light with fluence rate of 7.5 mW/cm2 at 10 J and measured after 24 hrs by propidium iodide/RNase-staining based flow cytometric analysis; type: functional; conditions: not given

Structure (SMILES)	Activity
COC(=O)c1nn2c(c1C(=O)OC)CC1c3cc4ccc([nH]4)c(-c4ccccc4)c4nc(cc5ccc([nH]5)c(-c5ccccc5)c(n3)C1C2)C=C4 (stereo not drawn)	Active
OCc1nn2c(c1CO)CC1c3cc4ccc([nH]4)c(-c4ccccc4)c4nc(cc5ccc([nH]5)c(-c5ccccc5)c(n3)C1C2)C=C4 (stereo not drawn)	Active

tested on: not listed separately; assay: Drug uptake in human A375 cells preincubated for 24 hrs followed by exposure to light with fluence rate of 7.5 mW/cm2 at 10 J measured after 24 hrs by fluorescence spectroscopic analysis; type: ADME, cell-based; conditions: a-375, 24 h

Structure (SMILES)	Drug uptake
COC(=O)c1nn2c(c1C(=O)OC)CC1c3cc4ccc([nH]4)c(-c4ccccc4)c4nc(cc5ccc([nH]5)c(-c5ccccc5)c(n3)C1C2)C=C4 (stereo not drawn)	Dose-dependent effect
OCc1nn2c(c1CO)CC1c3cc4ccc([nH]4)c(-c4ccccc4)c4nc(cc5ccc([nH]5)c(-c5ccccc5)c(n3)C1C2)C=C4 (stereo not drawn)	Dose-dependent effect

tested on: A-375; assay: Decrease in intracellular peroxides generation in human A375 cells at 500 nM preincubated for 24 hrs followed by exposure to light with fluence rate of 7.5 mW/cm2 at 10 J and measured after 24 hrs by DCFH2-DA staining-based fluorescence analysis; type: functional, cell-based; conditions: not given

Structure (SMILES)	Activity
COC(=O)c1nn2c(c1C(=O)OC)CC1c3cc4ccc([nH]4)c(-c4ccccc4)c4nc(cc5ccc([nH]5)c(-c5ccccc5)c(n3)C1C2)C=C4 (stereo not drawn)	Active
OCc1nn2c(c1CO)CC1c3cc4ccc([nH]4)c(-c4ccccc4)c4nc(cc5ccc([nH]5)c(-c5ccccc5)c(n3)C1C2)C=C4 (stereo not drawn)	Active

tested on: not listed separately; assay: Dark toxicity against human HFF1 cells at 1 to 10 uM after 24 hrs by MTT assay; type: cell-based; conditions: hff-1, 24 h

Structure (SMILES)	Activity
COC(=O)c1nn2c(c1C(=O)OC)CC1c3cc4ccc([nH]4)c(-c4ccccc4)c4nc(cc5ccc([nH]5)c(-c5ccccc5)c(n3)C1C2)C=C4 (stereo not drawn)	Non-Toxic
OCc1nn2c(c1CO)CC1c3cc4ccc([nH]4)c(-c4ccccc4)c4nc(cc5ccc([nH]5)c(-c5ccccc5)c(n3)C1C2)C=C4 (stereo not drawn)	Non-Toxic

tested on: A-375; assay: Photocytotoxicity against human A375 cells at 5 to 500 nM preincubated for 24 hrs followed by exposure to light with fluence rate of 7.5 mW/cm2 until 5 to 10 J and measured after 24 hrs by MTT assay; type: functional, cell-based; conditions: not given

Structure (SMILES)	Activity
COC(=O)c1nn2c(c1C(=O)OC)CC1c3cc4ccc([nH]4)c(-c4ccccc4)c4nc(cc5ccc([nH]5)c(-c5ccccc5)c(n3)C1C2)C=C4 (stereo not drawn)	Active
OCc1nn2c(c1CO)CC1c3cc4ccc([nH]4)c(-c4ccccc4)c4nc(cc5ccc([nH]5)c(-c5ccccc5)c(n3)C1C2)C=C4 (stereo not drawn)	Active

tested on: A-375; assay: Photocytotoxicity against human A375 cells at 5 to 50 nM preincubated for 24 hrs followed by exposure to light with fluence rate of 7.5 mW/cm2 until 20J and measured after 24 hrs by MTT assay; type: functional, cell-based; conditions: not given

Structure (SMILES)	Activity
COC(=O)c1nn2c(c1C(=O)OC)CC1c3cc4ccc([nH]4)c(-c4ccccc4)c4nc(cc5ccc([nH]5)c(-c5ccccc5)c(n3)C1C2)C=C4 (stereo not drawn)	Active
OCc1nn2c(c1CO)CC1c3cc4ccc([nH]4)c(-c4ccccc4)c4nc(cc5ccc([nH]5)c(-c5ccccc5)c(n3)C1C2)C=C4 (stereo not drawn)	Active

tested on: A-375; assay: Induction of apoptosis in human A375 cells assessed as decrease in living cells at 500 nM preincubated for 24 hrs followed by exposure to light with fluence rate of 7.5 mW/cm2 at 10 J and measured after 24 hrs by Annexin-V/propidium iodide stainin-based FACS analysis; type: functional; parameters: scale not given: the % may be the effect or the level left; conditions: not given

Structure (SMILES)	Activity
COC(=O)c1nn2c(c1C(=O)OC)CC1c3cc4ccc([nH]4)c(-c4ccccc4)c4nc(cc5ccc([nH]5)c(-c5ccccc5)c(n3)C1C2)C=C4 (stereo not drawn)	>50%
OCc1nn2c(c1CO)CC1c3cc4ccc([nH]4)c(-c4ccccc4)c4nc(cc5ccc([nH]5)c(-c5ccccc5)c(n3)C1C2)C=C4 (stereo not drawn)	>50%

tested on: A-375; assay: Decrease in intracellular superoxide anion generation in human A375 cells at 500 nM preincubated for 24 hrs followed by exposure to light with fluence rate of 7.5 mW/cm2 at 10 J and measured after 24 hrs by dihydroethidium staining-based fluorescence analysis; type: functional, cell-based; conditions: not given

Structure (SMILES)	Activity
COC(=O)c1nn2c(c1C(=O)OC)CC1c3cc4ccc([nH]4)c(-c4ccccc4)c4nc(cc5ccc([nH]5)c(-c5ccccc5)c(n3)C1C2)C=C4 (stereo not drawn)	Active
OCc1nn2c(c1CO)CC1c3cc4ccc([nH]4)c(-c4ccccc4)c4nc(cc5ccc([nH]5)c(-c5ccccc5)c(n3)C1C2)C=C4 (stereo not drawn)	Active

tested on: A-375; assay: Induction of apoptosis in human A375 cells assessed as increase in necrotic cells at 500 nM preincubated for 24 hrs followed by exposure to light with fluence rate of 7.5 mW/cm2 at 10 J and measured after 24 hrs by Annexin-V/propidium iodide stainin-based FACS analysis; type: functional, cell-based; conditions: not given

Structure (SMILES)	Activity
OCc1nn2c(c1CO)CC1c3cc4ccc([nH]4)c(-c4ccccc4)c4nc(cc5ccc([nH]5)c(-c5ccccc5)c(n3)C1C2)C=C4 (stereo not drawn)	Active

tested on: A-375; assay: Photocytotoxicity against human A375 cells preincubated for 24 hrs followed by exposure to light with fluence rate of 7.5 mW/cm2 until 10 J measured after 24 hrs by MTT assay; type: functional, cell-based; conditions: not given

Structure (SMILES)	pIC50
COC(=O)c1nn2c(c1C(=O)OC)CC1c3cc4ccc([nH]4)c(-c4ccccc4)c4nc(cc5ccc([nH]5)c(-c5ccccc5)c(n3)C1C2)C=C4 (stereo not drawn)	7.84
OCc1nn2c(c1CO)CC1c3cc4ccc([nH]4)c(-c4ccccc4)c4nc(cc5ccc([nH]5)c(-c5ccccc5)c(n3)C1C2)C=C4 (stereo not drawn)	8.31

tested on: A-375; assay: Photocytotoxicity against human A375 cells assessed as decrease in cell viability by measuring protein content at >= 50 nM preincubated for 24 hrs followed by exposure to light with fluence rate of 7.5 mW/cm2 at 10 J and measured after 24 hrs by sulforhodamine B assay; type: functional, cell-based; conditions: not given

Structure (SMILES)	Activity
COC(=O)c1nn2c(c1C(=O)OC)CC1c3cc4ccc([nH]4)c(-c4ccccc4)c4nc(cc5ccc([nH]5)c(-c5ccccc5)c(n3)C1C2)C=C4 (stereo not drawn)	Active
OCc1nn2c(c1CO)CC1c3cc4ccc([nH]4)c(-c4ccccc4)c4nc(cc5ccc([nH]5)c(-c5ccccc5)c(n3)C1C2)C=C4 (stereo not drawn)	Active

tested on: A-375; assay: Phototoxicity against human A375 cells assessed as reduction in cell viability up to 500 nM preincubated for 24 hrs followed by exposure to light with fluence rate of 7.5 mW/cm2 at 10 J and measured after 24 hrs in presence of singlet oxygen scavenger sodium azide by MTT assay; type: functional, cell-based; conditions: not given

Structure (SMILES)	Activity
COC(=O)c1nn2c(c1C(=O)OC)CC1c3cc4ccc([nH]4)c(-c4ccccc4)c4nc(cc5ccc([nH]5)c(-c5ccccc5)c(n3)C1C2)C=C4 (stereo not drawn)	inactive
OCc1nn2c(c1CO)CC1c3cc4ccc([nH]4)c(-c4ccccc4)c4nc(cc5ccc([nH]5)c(-c5ccccc5)c(n3)C1C2)C=C4 (stereo not drawn)	inactive

tested on: not listed separately; assay: Dark toxicity against human A375 cells at 1 to 10 uM after 24 hrs by MTT assay; type: cell-based; conditions: a-375, 24 h

Structure (SMILES)	Activity
COC(=O)c1nn2c(c1C(=O)OC)CC1c3cc4ccc([nH]4)c(-c4ccccc4)c4nc(cc5ccc([nH]5)c(-c5ccccc5)c(n3)C1C2)C=C4 (stereo not drawn)	Non-Toxic
OCc1nn2c(c1CO)CC1c3cc4ccc([nH]4)c(-c4ccccc4)c4nc(cc5ccc([nH]5)c(-c5ccccc5)c(n3)C1C2)C=C4 (stereo not drawn)	Non-Toxic

tested on: A-375; assay: Induction of apoptosis in human A375 cells at 50 nM preincubated for 24 hrs followed by exposure to light with fluence rate of 7.5 mW/cm2 at 10 J and measured after 24 hrs by Annexin-V/propidium iodide staining-based FACS analysis; type: functional, cell-based; conditions: not given

Structure (SMILES)	Activity
COC(=O)c1nn2c(c1C(=O)OC)CC1c3cc4ccc([nH]4)c(-c4ccccc4)c4nc(cc5ccc([nH]5)c(-c5ccccc5)c(n3)C1C2)C=C4 (stereo not drawn)	Active
OCc1nn2c(c1CO)CC1c3cc4ccc([nH]4)c(-c4ccccc4)c4nc(cc5ccc([nH]5)c(-c5ccccc5)c(n3)C1C2)C=C4 (stereo not drawn)	Active

tested on: A-375; assay: Induction of p53 expression in human A375 cells at 50 nM preincubated for 24 hrs followed by exposure to light with fluence rate of 7.5 mW/cm2 at 10 J and measured after 24 hrs by Western blot analysis; type: functional, cell-based; conditions: not given

Structure (SMILES)	Activity
COC(=O)c1nn2c(c1C(=O)OC)CC1c3cc4ccc([nH]4)c(-c4ccccc4)c4nc(cc5ccc([nH]5)c(-c5ccccc5)c(n3)C1C2)C=C4 (stereo not drawn)	Active
OCc1nn2c(c1CO)CC1c3cc4ccc([nH]4)c(-c4ccccc4)c4nc(cc5ccc([nH]5)c(-c5ccccc5)c(n3)C1C2)C=C4 (stereo not drawn)	Active

tested on: A-375; assay: Cell cycle arrest in human A375 cells assessed as accumulation at G1 phase up to 500 nM preincubated for 24 hrs followed by exposure to light with fluence rate of 7.5 mW/cm2 at 10 J and measured after 24 hrs by propidium iodide/RNase-staining based flow cytometric analysis; type: functional; conditions: not given

Structure (SMILES)	Activity
OCc1nn2c(c1CO)CC1c3cc4ccc([nH]4)c(-c4ccccc4)c4nc(cc5ccc([nH]5)c(-c5ccccc5)c(n3)C1C2)C=C4 (stereo not drawn)	Active
